The nature of data set [1]: Body weight during 28-day oral supplementation. In kind it is in vivo, Swiss Albino mice. Conditions: mean ± SD, n = 8 mice. The protocol: (§1) Forty 8-week-old male Swiss Albino mice were housed in an animal room at a constant temperature (22±3° C.) and humidity (30%-70%) under a 12:12 h light-dark cycle with standard laboratory diet (Purina 5L79, Rat and Mouse 18% protein; PMI Nutrition International, Brentwood, Mo., USA). Distilled water was provided ad libitum. All animal experiments were reviewed and approved by the Institutional Animal Ethical Committee (IAEC) of Radiant Research Services Pvt. Ltd (Bangalore, India). All research was conducted in accordance with the guidelines of the committee for the purpose of control and supervision of experiments on animals (CPCSEA Registration Number-1803/PO/RcBi/S/2015/CPCSEA).
(§2) After one week of acclimation, the animals were randomly divided by body weight into five groups (n=8 per group in each test) for oral treatment once a day, at approximately same time each day (±1 hour), for 28 consecutive days: (1) vehicle control; (2) paraxanthine (3) L-theanine; (4) alpha-GPC; and (5) taurine. The dose administered to the mice was calculated using US Food and Drug Administration for human equivalence doses (HED), assuming a human weight of 60 kg. The following HED were used in this study: 100 mg paraxanthine, (ENFINITY™, Ingenious Ingredients, L.P Lewisville, Tex., USA; mouse dose: 20.5 mg/kg bw/day); 200 mg alpha-GPC mg (YangLing Daily Health Bio-Engineering Technology Co., Ltd; mouse dose: 41.09 mg/kg bw), 50 mg L-theanine (Hangzhou Qinyuan Natural Plant High-tech Co., Ltd; mouse dose: 10.28 mg/kg bw), and 500 mg taurine (Jiangyin Huachang Food Additive Co., Ltd; mouse dose: 102.75 mg/kg bw). 0.5% Carboxy Methyl Cellulose sodium was used as vehicle and the test item formulations were prepared daily. Dosing was conducted via oral gavage using disposable polypropylene syringes with sterilized stainless steel gavage tubes. The food intake and water consumption were monitored daily, and BW was recorded weekly. The last dose on day 28 was given 1 hour prior to testing.

Data set [2] in a line: Feed consumption during 28-day oral supplementation. Conditions: mean ± SD, n = 8 mice. In kind it is in vivo, Swiss Albino mice. On the procedure: as §1, §2
The test system of data set [3] is male Swiss Albino mice. The experiment in a line: Forelimb grip strength test. In kind it is in vivo. On the procedure: After one week of acclimation, the animals were randomly divided by body weight into five groups (n=8 per group in each test) for oral treatment once a day, at approximately same time each day (±1 hour), for 28 consecutive days: (1) vehicle control; (2) paraxanthine (3) L-theanine; […] The dose administered to the mice was calculated using US Food and Drug Administration for human equivalence doses (HED), assuming a human weight of 60 kg. […] Dosing was conducted via oral gavage using disposable polypropylene syringes with sterilized stainless steel gavage tubes. The food intake and water consumption were monitored daily, and BW was recorded weekly. The last dose on day 28 was given 1 hour prior to testing. The forelimb grip strength was measured on day 0 and day 28 by using a stainless-steel grill to assess muscle strength (Orchid Scientific & Innovative India Pvt Ltd, India). Grip strength was measured one hour after treatment. Briefly, each mouse was placed on a grill chamber and the steel bar is inverted; grip strength is measured by recording the time each animal holds the steel bar. The maximum time for each trial was six minutes. Each animal performed three independent trials separated by six minutes intervals and the mean of the three trials was calculated.

For data set [4], the system named is male Swiss Albino mice. Briefly: Treadmill endurance test. In kind it is in vivo. On the procedure: (2) paraxanthine (3) L-theanine; […] The dose administered to the mice was calculated using US Food and Drug Administration for human equivalence doses (HED), assuming a human weight of 60 kg. […] Dosing was conducted via oral gavage using disposable polypropylene syringes with sterilized stainless steel gavage tubes. The food intake and water consumption were monitored daily, and BW was recorded weekly. The last dose on day 28 was given 1 hour prior to testing. […] All animals were adapted to this procedure daily 60 minutes after dosing for five days in a week during the treatment period. On 28th day of each respective treatment, all animals were subjected to a muscle endurance test. […] Animals were subjected to the treadmill test until exhaustion. Distance traveled (cm) was measured as a marker of exercise performance.

A short description of data set [5]: Clinical biochemical profiles of serum. In kind it is in vivo, Swiss Albino mice. Conditions: serum at end of 28-day treatment; mean ± SD, n = 8. On the procedure: (§3) After one week of acclimation, the animals were randomly divided by body weight into five groups (n=8 per group in each test) for oral treatment once a day, at approximately same time each day (±1 hour), for 28 consecutive days: (1) vehicle control; (2) paraxanthine (3) L-theanine; […] The dose administered to the mice was calculated using US Food and Drug Administration for human equivalence doses (HED), assuming a human weight of 60 kg. […] Dosing was conducted via oral gavage using disposable polypropylene syringes with sterilized stainless steel gavage tubes. The food intake and water consumption were monitored daily, and BW was recorded weekly. The last dose on day 28 was given 1 hour prior to testing. All animals were euthanized by 95% CO2 after 28 days of following their assigned treatment. Blood was collected immediately after euthanization by the retro-orbital route and was immediately centrifuged at 1500×g for 10 min at 4° C. before having all serum transferred into cryogenic tubes and stored at -80° C. The liver, heart, gastrocnemius and soleus were excised and weighed. Collected serum was analyzed for clinical biochemical variables including aspartate aminotransaminase (AST), alanine aminotransaminase (ALT), alkaline phosphatase (ALP), uric acid (UA), creatinine, total cholesterol (TC), triglycerides (TG), high-density lipoproteins (HDL), and low-density lipoproteins (LDL) were measured using an auto analyzer (EM360, ERBA Diagnostics Mannheim GmbH, Mannheim, Germany). Nitric oxide was analyzed using standard ELISA assay kits (Lot No: E-BC-[…], Elabscience, Houston, Tex., USA).

Data set [6] relates to male Swiss Albino mice. The experiment in a line: Muscle weight (gastrocnemius, soleus) after 28 days. In kind it is in vivo. As to conditions: after 28 days of supplementation; vs vehicle control. On the procedure: (§4) (2) paraxanthine (3) L-theanine; […] The dose administered to the mice was calculated using US Food and Drug Administration for human equivalence doses (HED), assuming a human weight of 60 kg. […] Dosing was conducted via oral gavage using disposable polypropylene syringes with sterilized stainless steel gavage tubes. The food intake and water consumption were monitored daily, and BW was recorded weekly. The last dose on day 28 was given 1 hour prior to testing. All animals were euthanized by 95% CO2 after 28 days of following their assigned treatment. Blood was collected immediately after euthanization by the retro-orbital route and was immediately centrifuged at 1500×g for 10 min at 4° C. before having all serum transferred into cryogenic tubes and stored at -80° C. The liver, heart, gastrocnemius and soleus were excised and weighed.

Data set [7] in a line: Liver and heart mass / gross pathology. In kind it is in vivo, Swiss Albino mice. Conditions: after 28 days of treatment; mean ± SD, n = 8. The protocol:
as §4

Data set [8] has as its system Nitric oxide. Briefly: Serum nitric oxide ELISA. In kind it is in vivo, Swiss Albino mice. Conditions: serum after 28 days of treatment; mean ± SD, n = 8. On the procedure:
as §3
Background: ELISA stands for enzyme-linked immunosorbent assay.

Regarding `NCCS(=O)(=O)O` [Taurine, taurine], the body weight worked out at 22.50 ± 0.49 grams in data set [1] (Basal); 24.08 ± 0.66 grams in data set [1] (Week 1, oral once daily); 26.99 ± 0.82 grams in data set [1] (Week 2, oral once daily); 29.06 ± 0.69 grams in data set [1] (Week 3, oral once daily); 32.34 ± 3.06 grams in data set [1] (Week 4, oral once daily). In addition, the feed consumption in data set [2] (Week 1) is on record as 40.95 ± 0.60 grams; in data set [2] (Week 2) it was 43.21 ± 1.25 grams; in data set [2] (Week 3) it was 45.21 ± 1.15 grams; in data set [2] (Week 4), 47.36 ± 1.08 grams. For the same compound, the “Baseline forelimb grip strength” value in data set [3] (day 0 baseline, time holding steel bar, mean of three trials) came to 90.94±0.85. Also, the “increase in forelimb grip strength compared to control” value in data set [3] (day 28, one hour after oral treatment, vs vehicle control) is given as “failed to reach statistical significance”. Besides, the “Distance traveled on treadmill” value in data set [4] (after 28 days of supplementation, run until exhaustion, mean ± SD, n=8) is recorded as 1,671±125 centimeters. Moreover, in data set [4] (after 28 days of supplementation, vs vehicle control), the “increase in distance traveled during treadmill exercise compared to control” value is on record as “did not increase treadmill performance”. The “Baseline treadmill performance (distance)” value in data set [4] (baseline, mean ± SD) was 256.9±29.3 cm. The ALP in data set [5] turned out to be 180.4 ± 5.42 U/L. The compound also displayed an ALT in data set [5] of 25.00 ± 1.07 U/L. In data set [5], this compound registered an AST of 40.13 ± 2.36 U/L. Besides, in data set [5], the Creatinine is recorded as 0.93 ± 0.14 mg/dL. Also, the Urea in data set [5] is on record as 29.38 ± 1.60 mg/dL. For the same compound, the “increase in gastrocnemius muscle mass compared to control” value in data set [6] is “no effect on muscle mass”. Further, the “increase in soleus muscle mass compared to control” value in data set [6] is given as “no effect on muscle mass”. Also, the Heart mass in data set [7] stood at 190 ± 1.2 mg. The Liver mass in data set [7] is listed as 1,834 ± 52 mg. The “Nitric Oxide” value in data set [8] came to 7.56 ± 0.29 ng/mL.

The values are drawn from patent US20230165868A1, “PARAXANTHINE-BASED COMPOSITIONS FOR ENHANCING MUSCLE FUNCTION, NITRIC OXIDE SIGNALING, AND/OR MUSCLE GLYCOGEN LEVELS” (Ingenious Ingredients, LP, priority 2021, published 2023).
